Results reported in patent publication US20240309043A1, “THERAPEUTICALLY ACTIVE STEROIDAL DERIVATIVES” (Organon R&D Finland Ltd., priority 2017, published 2024).

What was measured:
Assay type in all cases: biochemical
[1] = system: HSD1 enzyme that is expressed in rabbit placenta tissue; experiment: Inhibition of E1 to E2 conversion in rabbit placenta tissue homogenate; conditions: for Rabbit placenta inhibition % @100 nM: inhibitor 100 nM, 30 nM estrone, 30 min
[2] = target: T1, recombinant human 17β-HSD1 (Homo sapiens, UniProt P14061); experiment: Inhibition of recombinant human 17β-HSD1; conditions: inhibitor 100 nM; 30 nM estrone, 1 mM NADPH, 30 min RT
T1 construct: made in house; host or cells: Sd9 (Sf9) insect cells, baculovirus (Bac to Bac Expression System)
T1 sequence (P14061 1-328): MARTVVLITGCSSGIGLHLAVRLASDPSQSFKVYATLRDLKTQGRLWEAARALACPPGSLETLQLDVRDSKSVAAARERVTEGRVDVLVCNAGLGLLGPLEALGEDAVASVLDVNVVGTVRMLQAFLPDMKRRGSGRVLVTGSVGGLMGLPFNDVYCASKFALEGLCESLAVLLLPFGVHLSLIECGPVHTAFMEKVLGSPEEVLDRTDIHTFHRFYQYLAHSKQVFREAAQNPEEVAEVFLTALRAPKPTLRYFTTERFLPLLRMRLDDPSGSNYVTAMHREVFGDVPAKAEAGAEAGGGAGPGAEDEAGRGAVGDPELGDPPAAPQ
How it was run: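 Microsomes from Sf9 cells expressing human 17β-HSD1 (1 μg/ml) were incubated for 30 min at RT in 20 mM KH2PO4 pH 7.4 with 30 nM ³H-estrone, 1 mM NADPH and inhibitor at 1 μM or 0.1 μM (1% DMSO). Estrone-to-estradiol conversion was measured by radio-HPLC after TCA stop, and % inhibition was taken as 100 − % conversion.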

[3] = target: T2, recombinant human 17β-HSD2 (Homo sapiens, UniProt P37059); experiment: Inhibition of recombinant human 17β-HSD2; conditions: inhibitor 1 μM; 50 nM estradiol, 1 mM NADH, 30 min RT
T2 construct: made in house; host or cells: Sd9 (Sf9) insect cells, baculovirus (Bac to Bac Expression System)
T2 sequence (P37059 1-387): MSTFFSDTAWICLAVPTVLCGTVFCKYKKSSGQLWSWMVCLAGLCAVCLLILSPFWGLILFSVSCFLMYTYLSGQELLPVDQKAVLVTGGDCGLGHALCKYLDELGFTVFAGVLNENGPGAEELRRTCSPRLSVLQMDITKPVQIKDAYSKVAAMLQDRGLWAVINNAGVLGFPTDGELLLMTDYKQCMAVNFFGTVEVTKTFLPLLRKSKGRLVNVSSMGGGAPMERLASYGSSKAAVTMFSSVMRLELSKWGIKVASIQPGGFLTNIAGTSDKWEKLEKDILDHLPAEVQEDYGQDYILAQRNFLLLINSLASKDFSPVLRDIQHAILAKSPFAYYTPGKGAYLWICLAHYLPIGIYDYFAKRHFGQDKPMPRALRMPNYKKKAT
How it was run: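 Sf9 baculovirus-expressed enzyme membrane extract (4 μg/ml) incubated 30 min at RT in 20 mM KH2PO4 pH 8.5 with 50 nM estradiol (³H-tracer) and 1 mM NADH, inhibitor at 1 μM or 0.1 μM, 1% DMSO. TCA-stopped; estradiol-to-estrone conversion by radio-HPLC, % inhibition = 100 − % conversion.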

| SMILES | Rabbit placenta inhibition % @100 nM [1] [%] | inhibition at 0.1 µM [2] [%] | inhibition at 1 µM [3] [%] | Rabbit placenta inhibition % @1000 nM ([1]; inhibitor 1000 nM) [% @] | HSD1 inhibition % @100 nM [2] [%] | HSD2 inhibition % @1 μM [3] [%] |
| --- | --- | --- | --- | --- | --- | --- |
| Cc1cc(NC(=O)CC[C@@H]2C/C(=N\O)[C@@]3(C)CCC4c5ccc(F)cc5CCC4C23)no1 (stereo partly drawn) [Compound 134, 3-((13S,15R,E)-3-fluoro-17-(hydroxyimino)-13-methyl-7,8,9,11,12,13,14,15,16,17-decahydro-6H-cyclopenta[a]phenanthren-15-yl)-N-(5-methylisoxazol-3-yl)propanamide] | 46 | 75 | -3 | – | – | – |
| C[C@]12CCC3c4cccc(F)c4CCC3C1[C@H](CCC(=O)N1CCOCC1)C/C2=N\O (stereo partly drawn) [Compound 136, 3-((13S,15R,E)-4-fluoro-17-(hydroxyimino)-13-methyl-7,8,9,11,12,13,14,15,16,17-decahydro-6H-cyclopenta[a]phenanthren-15-yl)-1-morpholinopropan-1-one] | 18 | 39 | -1 | – | – | – |
| C[C@]12CCC3c4cccc(F)c4CCC3C1[C@H](CCC(=O)Nc1cc(F)ccn1)C/C2=N\O (stereo partly drawn) [Compound 140, 3-((13S,15R,E)-4-fluoro-17-(hydroxyimino)-13-methyl-7,8,9,11,12,13,14,15,16,17-decahydro-6H-cyclopenta[a]phenanthren-15-yl)-N-(4-fluoropyridin-2-yl)propanamide] | 24 | 86 | 6 | – | – | – |
| C[C@]12CCC3c4cccc(F)c4CCC3C1[C@H](CCC(=O)Nc1ncccc1F)C/C2=N\O (stereo partly drawn) [Compound 142, 3-((13S,15R,E)-4-fluoro-17-(hydroxyimino)-13-methyl-7,8,9,11,12,13,14,15,16,17-decahydro-6H-cyclopenta[a]phenanthren-15-yl)-N-(3-fluoropyridin-2-yl)propanamide] | 34 | 93 | -1 | – | – | – |
| C[C@]12CCC3c4cccc(F)c4CCC3C1[C@H](CCC(=O)Nc1cccc(F)n1)C/C2=N\O (stereo partly drawn) [Compound 144, 3-((13S,15R,E)-4-fluoro-17-(hydroxyimino)-13-methyl-7,8,9,11,12,13,14,15,16,17-decahydro-6H-cyclopenta[a]phenanthren-15-yl)-N-(6-fluoropyridin-2-yl)propanamide] | 24 | 74 | 10 | – | – | – |
| C[C@]12CCC3c4cccc(F)c4CCC3C1[C@H](CCC(=O)Nc1ncc(F)cc1F)C/C2=N\O (stereo partly drawn) [Compound 146, N-(3,5-difluoropyridin-2-yl)-3-((13S,15R,E)-4-fluoro-17-(hydroxyimino)-13-methyl-7,8,9,11,12,13,14,15,16,17-decahydro-6H-cyclopenta[a]phenanthren-15-yl)propanamide] | – | 92 | 8 | 63 | – | – |
| C[C@]12CCC3c4cccc(F)c4CCC3C1[C@H](CCC(=O)Nc1ccc(C#N)cn1)C/C2=N\O (stereo partly drawn) [Compound 148, N-(5-cyanopyridin-2-yl)-3-((13S,15R,E)-4-fluoro-17-(hydroxyimino)-13-methyl-7,8,9,11,12,13,14,15,16,17-decahydro-6H-cyclopenta[a]phenanthren-15-yl)propanamide] | 35 | 90 | 9 | – | – | – |
| C[C@]12CCC3c4ccc(F)cc4CCC3C1[C@H](CCC(=O)Nc1ncccc1F)C/C2=N\O (stereo partly drawn) [Compound 150a, 3-((13S,15R,E)-3-fluoro-17-(hydroxyimino)-13-methyl-7,8,9,11,12,13,14,15,16,17-decahydro-6H-cyclopenta[a]phenanthren-15-yl)-N-(3-fluoropyridin-2-yl)propanamide] | 10 | 74 | 0 | – | – | – |
| C[C@]12CCC3c4ccc(F)cc4CCC3C1[C@H](CCC(=O)Nc1ncccc1F)C/C2=N/O (stereo partly drawn) [Compound 150b, 3-((13S,15R,Z)-3-fluoro-17-(hydroxyimino)-13-methyl-7,8,9,11,12,13,14,15,16,17-decahydro-6H-cyclopenta[a]phenanthren-15-yl)-N-(3-fluoropyridin-2-yl)propanamide] | 3 | 30 | 6 | – | – | – |
| C[C@]12CCC3c4ccc(F)cc4CCC3C1[C@H](CCC(=O)Nc1ncc(F)cc1F)C/C2=N\O (stereo partly drawn) [Compound 152, N-(3,5-difluoropyridin-2-yl)-3-((13S,15R,E)-3-fluoro-17-(hydroxyimino)-13-methyl-7,8,9,11,12,13,14,15,16,17-decahydro-6H-cyclopenta[a]phenanthren-15-yl)propanamide] | 6 | 56 | 2 | – | – | – |
| C[C@]12CCC3c4ccc(F)cc4CCC3C1[C@H](CCC(=O)Nc1ccc(N3CCOCC3)cn1)C/C2=N\O (stereo partly drawn) [Compound 154, 3-((13S,15R,E)-3-fluoro-17-(hydroxyimino)-13-methyl-7,8,9,11,12,13,14,15,16,17-decahydro-6H-cyclopenta[a]phenanthren-15-yl)-N-(5-morpholinopyridin-2-yl)propanamide] | 38 | 83 | 7 | – | – | – |
| C[C@]12CCC3c4ccc(Cl)cc4CCC3C1[C@H](CCC(=O)Nc1cc(F)ccn1)C/C2=N\O (stereo partly drawn) [Compound 156, 3-((13S,15R,E)-3-chloro-17-(hydroxyimino)-13-methyl-7,8,9,11,12,13,14,15,16,17-decahydro-6H-cyclopenta[a]phenanthren-15-yl)-N-(4-fluoropyridin-2-yl)propanamide] | 3 | 47 | 10 | – | – | – |
| C[C@]12CCC3c4ccccc4CCC3C1[C@H](CCC(=O)Nc1cc(F)ccn1)C/C2=N\O (stereo partly drawn) [Compound 158, N-(4-fluoropyridin-2-yl)-3-((13S,15R,E)-17-(hydroxyimino)-13-methyl-7,8,9,11,12,13,14,15,16,17-decahydro-6H-cyclopenta[a]phenanthren-15-yl)propanamide] | 12 | 36 | 4 | – | – | – |
| C[C@]12CCC3c4ccccc4CCC3C1[C@H](CCC(=O)Nc1ncccc1F)C/C2=N\O (stereo partly drawn) [Compound 160, N-(3-fluoropyridin-2-yl)-3-((13S,15R,E)-17-(hydroxyimino)-13-methyl-7,8,9,11,12,13,14,15,16,17-decahydro-6H-cyclopenta[a]phenanthren-15-yl)propanamide] | 10 | 66 | 5 | – | – | – |
| C[C@]12CCC3c4ccc(Cl)cc4CCC3C1[C@H](CCC(=O)Nc1ncccc1F)C/C2=N\O (stereo partly drawn) [Compound 162, 3-((13S,15R,E)-3-chloro-17-(hydroxyimino)-13-methyl-7,8,9,11,12,13,14,15,16,17-decahydro-6H-cyclopenta[a]phenanthren-15-yl)-N-(3-fluoropyridin-2-yl)propanamide] | 7 | – | – | – | 44 | 10 |
| C[C@]12CCC3c4ccc(Cl)cc4CCC3C1[C@H](CCC(=O)Nc1ncc(F)cc1F)C/C2=N\O (stereo partly drawn) [Compound 164, 3-((13S,15R,E)-3-chloro-17-(hydroxyimino)-13-methyl-7,8,9,11,12,13,14,15,16,17-decahydro-6H-cyclopenta[a]phenanthren-15-yl)-N-(3,5-difluoropyridin-2-yl)propanamide] | 5 | 40 | 11 | – | – | – |
